Read-outs that look alike come from different tables or passages of the source.
Legend:
[1] = target: GDP-bound KRAS protein (aa 1-169), containing both G12C and C118A amino acid substitutions (Homo sapiens (Human), UniProt P01116, C118A/G12C); assay: Coupled nucleotide exchange assay (SOS-mediated nucleotide exchange, AlphaScreen); format: biochemical; conditions: 5 min compound pre-incubation; for IC50: read-out: Coupled exchange IC50 (5 min; μM)
[2] = system: Phosphorylation of ERK1/2 in MIA PaCa-2 cells; assay: Phospho-ERK1/2 MSD assay in MIA PaCa-2 cells; format: cell-based; conditions: read-out: p-ERK IC50 (2 h, MiaPaCa-2; μM), 2 h compound treatment, MIA PaCa-2 cells, EGF stimulated
Summary of the method: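 Phospho-ERK1/2 measured by MSD electrochemiluminescence kit in RIPA lysates of MIA PaCa-2 cells. Cells were treated with compound titrations for 2 or 4 h at 37 °C, 5% CO2, followed by a 10 min pulse of 10 ng/mL EGF.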

[3] = system: Phosphorylation of ERK1/2 in A549 cells; assay: Phospho-ERK1/2 MSD assay in A549 cells; format: cell-based; conditions: read-out: p-ERK IC50 (2 h, A549; μM), 2 h compound treatment, A549 cells, EGF stimulated
Summary of the method: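 Dose-response treatment lasted 2 or 4 h in RPMI 1640/10% FBS at 37 °C. EGF-stimulated (10 ng/mL, 10 min) ERK1/2 phosphorylation was then quantified in cell lysates with a Meso Scale Discovery phospho-ERK1/2 assay.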

Sequence of GDP-bound KRAS protein (aa 1-169), containing both G12C and C118A amino acid substitutions (P01116 other isoform, or with tags, fused parts or gaps G12C/C118A): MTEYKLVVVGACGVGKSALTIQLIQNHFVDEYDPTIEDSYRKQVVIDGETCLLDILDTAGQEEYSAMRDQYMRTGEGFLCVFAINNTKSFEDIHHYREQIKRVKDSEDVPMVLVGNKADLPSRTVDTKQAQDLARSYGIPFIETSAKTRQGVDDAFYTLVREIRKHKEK

Coupled exchange IC50 (5 min; μM) [1] | SMILES | IC50 [1] | IC50 [2] | IC50 [3] | IC50 ([2]; Homo sapiens, MIA PaCa-2, 2 h) | IC50 ([3]; Homo sapiens, A549, 2 h)
 | C=CC(=O)N1C[C@H](C)N(c2nc(=O)n(-c3c(C(C)C)ncnc3C3CC3)c3nc(-c4ccccc4C)c(Cl)cc23)C[C@H]1C (single isomer, unassigned) [Example 108-2-1] | 0.035 µM | 0.046 µM | > 7.5 µM |  | 
 | C=CC(=O)N1C[C@H](C)N(c2nc(=O)n(-c3c(C(C)C)ncnc3C3CC3)c3nc(-c4ccccc4C)c(Cl)cc23)C[C@H]1C (single isomer, unassigned) [Example 108-2-2] | 0.181 µM | 0.148 µM | > 7.5 µM |  | 
 | C=CC(=O)N1C[C@H](C)N(c2nc(=O)n(-c3c(CC)ncnc3C(C)C)c3nc(-c4ccccc4F)c(Cl)cc23)C[C@H]1C (single isomer, unassigned) [Example 109-1-1] | 0.06 µM | 0.045 µM | > 7.5 µM |  | 
 | C=CC(=O)N1C[C@H](C)N(c2nc(=O)n(-c3c(CC)ncnc3C(C)C)c3nc(-c4ccccc4F)c(Cl)cc23)C[C@H]1C (single isomer, unassigned) [Example 109-1-2] | 0.209 µM | 0.08 µM | > 7.5 µM |  | 
 | C=CC(=O)N1C[C@H](C)N(c2nc(=O)n(-c3c(CC)ncnc3C(C)C)c3nc(-c4ccccc4C)c(Cl)cc23)C[C@H]1C (single isomer, unassigned) [Example 109-2-1] | 0.059 µM | 0.065 µM | > 7.5 µM |  | 
0.066 µM | C=CC(=O)N1C[C@H](C)N(c2nc(=O)n(-c3c(C)cc(CN(C)C)cc3C(C)C)c3nc(-c4ccccc4F)c(Cl)cc23)C[C@H]1C (single isomer, unassigned) [Example 121-3] |  |  |  | 0.027 µM | > 7.5 µM
 | C=CC(=O)N1C[C@H](C)N(c2nc(=O)n(-c3c(N(C)C)ccnc3C(C)C)c3nc(-c4c(F)cccc4NC(=O)CC)c(Cl)cc23)C[C@H]1C (single isomer, unassigned) [Example 122-2-2] | 0.088 µM | 0.63 µM |  |  | > 7.5 µM
 | C=CC(=O)N1C[C@H](C)N(c2nc(=O)n(-c3c(N(C)C)ccnc3C(C)C)c3nc(-c4c(F)cccc4NC(=O)C4CC4)c(Cl)cc23)C[C@H]1C (single isomer, unassigned) [Example 122-3-2] | 0.179 µM |  |  | 0.145 µM | > 7.5 µM
 | C=CC(=O)N1[C@H](C)CN(c2nc(=O)n(-c3c(C)cc(N)nc3C(C)C)c3nc(-c4c(O)cccc4F)c(F)cc23)C[C@@H]1C (single isomer, unassigned) [Example 123-2] | 0.4 µM |  |  | 0.26 µM | > 7.5 µM
 | C=CC(=O)N1[C@H](C)CN(c2nc(=O)n(-c3c(C)cc(N)nc3C(C)C)c3nc(-c4c(N)cccc4F)c(F)cc23)C[C@@H]1C (single isomer, unassigned) [Example 123-6] | 0.231 µM | 0.133 µM |  |  | > 7.5 µM
 | C=CC(=O)N1C[C@H](C)N(c2nc(=O)n(-c3c(C(C)C)ccnc3C(C)C)c3nc(-c4ccccc4C)c(Cl)cc23)C[C@H]1C (single isomer, unassigned) [Example 124-2] | 0.033 µM |  |  | 0.032 µM | > 7.5 µM
 | C=CC(=O)N1C[C@H](C)N(c2nc(=O)n(-c3c(C(C)C)ccnc3C(C)C)c3nc(-c4ccccc4C(F)(F)F)c(Cl)cc23)C[C@H]1C (single isomer, unassigned) [Example 124-3] | 0.028 µM |  |  | 0.032 µM | > 7.5 µM
 | C=CC(=O)N1C[C@H](C)N(c2nc(=O)n(-c3c(C(C)C)ccnc3C(C)C)c3nc(-c4c(O)cccc4F)c(Cl)cc23)C[C@H]1C (single isomer, unassigned) [Example 124-4] | 0.022 µM |  |  | 0.016 µM | > 7.5 µM
0.122 µM | C=CC(=O)N1C[C@H](C)N(c2nc(=O)n(-c3c(C4CC4)ccnc3C(C)C)c3nc(-c4ccccc4C)c(Cl)cc23)C[C@H]1C (single isomer, unassigned) [Example 124-9] |  | 0.169 µM |  |  | > 7.5 µM
 | C=CC(=O)N1CCN(c2nc(=O)n(-c3c(C(C)C)ccnc3C(C)C)c3nc(-c4ccccc4C)c(Cl)cc23)[C@@H](C)C1 (single isomer, unassigned) [Example 124-10] | 0.046 µM |  |  | 0.049 µM | > 7.5 µM
 | C=CC(=O)N1C[C@H](C)N(c2nc(=O)n(-c3c(C(C)C)ccnc3C(C)C)c3nc(-c4ccccc4C(C)C)c(Cl)cc23)C[C@H]1C (single isomer, unassigned) [Example 125-8] | 0.113 µM | 0.137 µM | 5.05 µM |  | 
0.035 µM | C=CC(=O)N1C[C@H](C)N(c2nc(=O)n(-c3c(C4CC4)ccnc3C(C)C)c3nc(-c4ccccc4C)c(Cl)cc23)C[C@H]1C (single isomer, unassigned) [Example 125-9] |  | 0.048 µM | > 7.5 µM |  | 
 | C=CC(=O)N1CCN(c2nc(=O)n(-c3c(C(C)C)ccnc3C(C)C)c3nc(-c4ccccc4C)c(Cl)cc23)[C@@H](C)C1 (single isomer, unassigned) [Example 125-10] | 0.032 µM | 0.068 µM | > 7.5 µM |  | 
 | C=CC(=O)N1CCN(c2nc(=O)n(CC(C)(C)C)c3nc(-c4ccccc4F)c(Cl)cc23)CC1CC#N (single isomer, unassigned) [Example 145-1-1, 2-[4-[6-Chloro-1-(2,2-dimethylpropyl)-7-(2-fluorophenyl)-2-oxo-pyrido[2,3-d]pyrimidin-4-yl]-1-prop-2-enoyl-piperazin-2-yl]acetonitrile] | 1.71 µM | 1.3 µM | 5.53 µM |  | 
 | C=CC(=O)N1CCN(c2nc(=O)n(CC(C)(C)C)c3nc(-c4ccccc4F)c(Cl)cc23)CC1CC#N (single isomer, unassigned) [Example 145-1-2, 2-[4-[6-Chloro-1-(2,2-dimethylpropyl)-7-(2-fluorophenyl)-2-oxo-pyrido[2,3-d]pyrimidin-4-yl]-1-prop-2-enoyl-piperazin-2-yl]acetonitrile] | 1.15 µM | 1.05 µM | 3.94 µM |  | 
 | C=CC(=O)N1C[C@H](C)N(c2nc(=O)n3c4nc(c(Cl)cc24)-c2ccccc2C/C=C\Cc2cccc(C(C)C)c2-3)C[C@H]1C (single isomer, unassigned) [Example 146-2-2] | 0.061 µM |  |  | 0.096 µM | 5.48 µM
 | C=CC(=O)N1C[C@H](C)N(c2nc(=O)n3c4nc(c(Cl)cc24)-c2ccccc2C/C=C/Cc2ccccc2-3)C[C@H]1C (single isomer, unassigned) [Example 146-3-2] | 4.4 µM |  |  | 1.05 µM | > 7.5 µM
 | C=CC(=O)N1C[C@H](C)N(c2nc(=O)n3c4nc(c(Cl)cc24)-c2ccccc2C/C=C\Cc2ccccc2-3)C[C@H]1C (single isomer, unassigned) [Example 146-3-4] | 7.96 µM | 1.26 µM | > 7.5 µM |  | 
0.049 µM | C=CC(=O)N1C[C@H](C)N(c2nc(=O)n(-c3c(C)cc(CC)nc3C(C)C)c3nc(-c4ccccc4F)c(Cl)cc23)C[C@H]1C (single isomer, unassigned) [Example 166-1] |  |  |  | 0.118 µM | > 7.5 µM
 | C=CC(=O)N1CCN(c2nc(=O)n(-c3c(C)cc(N)nc3C(C)C)c3nc(-c4ccccc4F)c(Cl)cc23)[C@@H](C)C1 (single isomer, unassigned) [Example 183-2] | 0.058 µM |  |  | 0.043 µM | > 7.5 µM
0.079 µM | C=CC(=O)N1C[C@H](C)N(c2nc(=O)n(-c3c(C)nc(Cl)nc3C(C)C)c3nc(-c4ccccc4F)c(Cl)cc23)C[C@H]1C (single isomer, unassigned) [Example 191-2] |  |  |  | 0.079 µM | > 7.5 µM
0.048 µM | C=CC(=O)N1C[C@H](C)N(c2nc(=O)n(-c3c(C)nc(N(C)C)nc3C(C)C)c3nc(-c4ccccc4F)c(Cl)cc23)C[C@H]1C (single isomer, unassigned) [Example 196] |  |  |  | 0.097 µM | > 7.5 µM
0.01 µM | C=CC(=O)N1C[C@H](C)N(c2nc(=O)n(-c3c(C)nc(Br)nc3C(C)C)c3nc(-c4ccccc4F)c(Cl)cc23)C[C@H]1C (single isomer, unassigned) [Example 197-2] |  |  |  | 0.091 µM | > 7.5 µM
0.075 µM | C=CC(=O)N1C[C@H](C)N(c2nc(=O)n(-c3c(C)nc(C4CC4)nc3C(C)C)c3nc(-c4ccccc4F)c(Cl)cc23)C[C@H]1C (single isomer, unassigned) [Example 198] |  |  |  | 0.136 µM | 5.96 µM

SMILES | Coupled exchange IC50 (5 min; μM) [1] | IC50 [1] | IC50 [2] | IC50 [3] | IC50 ([2]; Homo sapiens, MIA PaCa-2, 2 h) | IC50 ([3]; Homo sapiens, A549, 2 h)
C=CC(=O)N1C[C@H](C)N(c2nc(=O)n(-c3c(N)ncnc3C(C)C)c3nc(-c4ccccc4F)c(Cl)cc23)C[C@H]1C (single isomer, unassigned) [Example 189-1] | 0.036 µM |  |  |  | 0.072 µM | > 7.5 µM
C=CC(=O)N1C[C@H](C)N(c2nc(=O)n(-c3c(C)ncnc3C(C)C)c3nc(-c4ccccc4F)c(Cl)cc23)C[C@H]1C (single isomer, unassigned) [Example 194-1] | 0.067 µM |  |  |  | 0.033 µM | > 7.5 µM

From patent US11285156B2, “Substituted piperazines as KRAS G12C inhibitors” (Amgen Inc., priority 2018, dated 2022)
